The test deals with T1, STING (Homo sapiens, UniProt Q86WV6, G230A/H232R/R293Q/R71H).
T1 construct: host or cells: THP-1 / THP1-Dual / THP1-Lucia ISG cells
Nature of the test: STING pathway activity in THP1-Dual/THP-1 cells upon cGAMP or MSA-2 stimulation (luciferase/interferon readout). The note with it: THP-1 cells; for inhibition at 10 µM: 10 μM compound, cGAMP (100 μM) or MSA-2 (10 μM) stimulation; for Induction of interferon production in the presence of MSA2: 10 μM MSA2, increasing concentrations of compound. It is filed as cell-based. From the text:
Methods of measuring STING activity and by extension, the activity of the compounds discussed herein, are known in the art. As an example, the STING pathway activity may be evaluated using reporter cell lines where a reporter gene (i.e., luciferase, GFP) is expressed under direct or indirect control of interferon response elements. For example, in an exemplary embodiment, the STING pathway can be measured using THP1-Dual™ cells (InvivoGen) which express the Lucia gene (a secreted luciferase reporter gene) under the control of an ISG54 minimal promoter in conjunction with five IFN-stimulated response elements. The STING pathway, when activated, stimulates interferon release which, in this model, will increase luciferase expression in a detectable manner. When inhibited, interferon release will be decreased, reducing luciferase expression in a detectable manner. The compounds can optionally be tested in the presence of external stimulation (i.e., using cGAMP, a natural agonist of STING, or MSA-2).
The STING pathway activity was evaluated in THP1-Dual™ cells (Invivogen). […] After incubating at 37° C. for 16 hours, the luciferase activity was measured by QUANTI-Luc™ (Invivogen).

The structures appear in SMILES notation.

T1 sequence (Q86WV6 whole entry R71H/G230A/H232R/R293Q): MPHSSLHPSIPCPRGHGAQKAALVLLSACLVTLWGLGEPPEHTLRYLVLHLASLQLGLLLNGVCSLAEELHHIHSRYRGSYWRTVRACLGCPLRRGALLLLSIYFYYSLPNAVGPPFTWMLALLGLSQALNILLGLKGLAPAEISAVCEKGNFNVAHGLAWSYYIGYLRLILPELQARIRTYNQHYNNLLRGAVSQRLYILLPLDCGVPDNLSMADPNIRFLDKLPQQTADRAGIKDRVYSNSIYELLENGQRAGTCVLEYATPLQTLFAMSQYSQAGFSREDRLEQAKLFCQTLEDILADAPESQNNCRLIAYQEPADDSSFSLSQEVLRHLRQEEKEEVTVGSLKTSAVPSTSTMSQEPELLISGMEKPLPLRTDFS

A word on the inhibition: it is the drop in the measured response relative to a control, in per cent. `CC1(C)C(=O)N(Cc2c(F)cccc2C(N)=O)c2cc(C(=O)NCc3c(F)cc(F)cc3F)ccc21` [UT126, 1-(2-carbamoyl-6-fluorobenzyl)-3,3-dimethyl-2-oxo-N-(2,4,6-trifluorobenzyl) indoline-6-carboxamide]: the inhibition at 10 µM was < 50%.

With `CC1(C)C(=O)N(Cc2c(F)cc(F)cc2F)c2cc(C(=O)NCc3cc4ccccc4[nH]3)ccc21` [UT141, N-((1H-indol-2-yl)methyl)-3,3-dimethyl-2-oxo-1-(2,4,6-trifluorobenzyl)indoline-6-carboxamide], the inhibition at 10 µM was > 50% and the “Induction of interferon production in the presence of MSA2” value (shortened to “Induction of interferon production”) is recorded as “inhibited in a dose dependent manner”.

For `CC1(C)C(=O)N(Cc2c(F)cccc2C(F)(F)F)c2cc(C(=O)NCc3cc4ccccc4[nH]3)ccc21` [UT142, N-((1H-indol-2-yl)methyl)-1-(2-fluoro-6-(trifluoromethyl)benzyl)-3,3-dimethyl-2-oxoindoline-6-carboxamide], the inhibition at 10 µM is > 50% and the “Induction of interferon production” value is on record as “inhibited in a dose dependent manner”.

`CC1(C)C(=O)N(Cc2c(Oc3cc(F)cc(F)c3)cccc2C(F)(F)F)c2cc(C(F)(F)F)ccc21` [UT149, 1-(2-(3,5-difluorophenoxy)-6-(trifluoromethyl)benzyl)-3,3-dimethyl-6-(trifluoromethyl)indolin-2-one]: the inhibition at 10 µM was < 50%.

In the case of `Cc1nn(C)c(CN2C(=O)C(C)[C@@H](C)c3ccc(C(=O)NCc4cc5ccccc5[nH]4)cc32)c1Br` (stereo partly drawn) [UT151, (4R)-N-((1H-indol-2-yl)methyl)-1-((4-bromo-1,3-dimethyl-1H-pyrazol-5-yl)methyl)-3,4-dimethyl-2-oxo-1,2,3,4-tetrahydroquinoline-7-carboxamide], the inhibition at 10 µM is < 50%.

For the compound `CC1C(=O)N(Cc2c(F)cccc2C(F)(F)F)c2cc(C(=O)NCc3c(F)cc(F)cc3F)ccc2[C@@H]1C` (stereo partly drawn) [UT153, (4R)-1-(2-fluoro-6-(trifluoromethyl)benzyl)-3,4-dimethyl-2-oxo-N-(2,4,6-trifluorobenzyl)-1,2,3,4-tetrahydroquinoline-7-carboxamide], the inhibition at 10 µM is < 50%.

In the case of `CC1C(=O)N(Cc2c(F)cc(F)cc2F)c2cc(C(=O)NCc3cc4ccccc4[nH]3)ccc2[C@@H]1C` (stereo partly drawn) [UT156, (4R)-N-((1H-indol-2-yl)methyl)-3,4-dimethyl-2-oxo-1-(2,4,6-trifluorobenzyl)-1,2,3,4-tetrahydroquinoline-7-carboxamide], the inhibition at 10 µM was > 50%.

On to `Cc1nn(C)c(CN2C(=O)C(C)(C)c3ccc(C(=O)NCc4cc5ccccc5[nH]4)cc32)c1C` [UT157, N-((1H-indol-2-yl)methyl)-3,3-dimethyl-2-oxo-1-((1,3,4-trimethyl-1H-pyrazol-5-yl)methyl)indoline-6-carboxamide], for which the inhibition at 10 µM is < 50% and the “Induction of interferon production” value is “inhibited in a dose dependent manner”.

As to `CC1C(=O)N(Cc2c(F)cccc2C(F)(F)F)c2cc(C(=O)NCc3cc4ccccc4[nH]3)ccc2[C@@H]1C` (stereo partly drawn) [UT158, (4R)-N-((1H-indol-2-yl)methyl)-1-(2-fluoro-6-(trifluoromethyl)benzyl)-3,4-dimethyl-2-oxo-1,2,3,4-tetrahydroquinoline-7-carboxamide], the inhibition at 10 µM was < 50%.

As for `Cc1nn(C)c(CN2C(=O)C(C)[C@@H](C)c3ccc(C(=O)NCc4cc5ccccc5[nH]4)cc32)c1C` (stereo partly drawn) [UT160, (4R)-N-((1H-indol-2-yl)methyl)-3,4-dimethyl-2-oxo-1-((1,3,4-trimethyl-1H-pyrazol-5-yl)methyl)-1,2,3,4-tetrahydroquinoline-7-carboxamide], the inhibition at 10 µM is < 50%.

Take `CC1(C)C(=O)N(Cc2c(Oc3cc(F)cc(F)c3)cccc2C(F)(F)F)c2cc(C#N)ccc21` [UT200, 1-(2-(3,5-difluorophenoxy)-6-(trifluoromethyl)benzyl)-3,3-dimethyl-2-oxoindoline-6-carbonitrile]: the inhibition at 10 µM was > 50%.
